Experimental findings from paper PMC12889028, “Discovery and biological evaluation of novel N-aryl-N′-methylbenzodrazides against Schistosoma japonicum in vitro and in vivo” (Microbiology Spectrum, 2025) are described below.

This data set deals with adult worms of S. japonicum (Chinese strain). The data set can be described thus: microbe, parasite or virus in culture. To be noted: for mortality at 100 µM: Schistosoma japonicum; for Mortality (%) 72 h: 100 μM, adult worms in vitro. The protocol: S. japonicum cercariae (Chinese strain) were acquired from infected Oncomelania hupensis snails (Wuxi Insect Vector Biology Co., Ltd., China) ([28]). ICR mice (6–8 weeks, 22–25 g; Hunan SJA Laboratory Animal Co., Ltd., China) were percutaneously infected via abdominal exposure to 60 ± 5 cercariae. Adult schistosomes were perfused from the hepatic portal system at 35 dpi using a modified Duvall and DeWitt method ([29]). Animals were housed under controlled conditions (22°C ± 1°C, 12 h light/dark cycle) with ad libitum access to feed and water.
Adult S. japonicum worms isolated from ICR mice were maintained in sterile culture medium (2.0 mL) comprising 77% RPMI 1640 (Lanzhou Bailing Biotech Co., Ltd.; pH 7.5, HEPES-buffered), 20% heat-inactivated fetal bovine serum (Lanzhou Minhai Bio-Engineering Co., Ltd.), and 3% penicillin-streptomycin (100×; 10,000 U/mL penicillin, 10,000 μg/mL streptomycin; New Cell & Molecular Biotech Co., Ltd., China). Incubation was performed at 37°C under 5% CO2. Test compounds were dissolved in DMSO as 0.1 M stock solutions; 2.0 μL aliquots were added to worm-containing media (final concentration: 100 μM in 0.1% DMSO). Negative controls received equivalent volumes of vehicle (0.1% DMSO in RPMI 1640). Parasite viability (motor activity, tegumental integrity, survival) was assessed every 12 h for 72 h using an Olympus CKX53 inverted microscope (n ≥ 3 independent replicates).

Where [1] appears, read: 24 h, read-out: Mortality (%) 24 h, 100 μM, 24 h, adult worms in vitro.
The mark [2] stands for this setting: 36 h, read-out: Mortality (%) 36 h, 100 μM, 36 h, adult worms in vitro.
[3] abbreviates: 48 h, read-out: Mortality (%) 48 h, 100 μM, 48 h, adult worms in vitro.
Where [4] appears, read: 72 h, read-out: Mortality (%) 72 h, 100 μM, 72 h, adult worms in vitro.

Molecules are shown by their SMILES. Like-named read-outs stand apart in the source and are kept apart here.

As to `CN(NC(=O)c1ccc(Cl)c(Cl)c1)c1ccccc1F` [Compound 11], the mortality at 100 µM came to 0% under setting [1], 0% under setting [2], 0% under setting [3] and 0% under setting [4].
As to `Cc1ccccc1N(C)NC(=O)c1ccc(Br)cc1` [Compound 37], the mortality at 100 µM is, setting by setting: under setting [1], 0%; under setting [2], 0%; under setting [3], 0%; under setting [4], 0%.
Regarding `CN(NC(=O)c1ccc(Cl)cc1)c1ccc(Cl)c(Cl)c1` [Compound 17], the mortality at 100 µM by setting is: under setting [1], 0%; under setting [2], 5%; under setting [3], 25%; under setting [4], 70%.
Regarding `Cc1cccc(N(C)NC(=O)c2ccc(Br)cc2)c1` [Compound 33], the mortality at 100 µM runs as follows: under setting [1], 0%; under setting [2], 15%; under setting [3], 40%; under setting [4], 70%.
Turning to `CN(NC(=O)c1ccc(Br)cc1)c1cc(Cl)cc(Cl)c1` [Compound 40], the mortality at 100 µM was 0% under setting [1], 20% under setting [2], 70% under setting [3] and 100% under setting [4].
Regarding `CN(NC(=O)c1ccc(C#N)cc1)c1ccc(Cl)c(Cl)c1` [Compound 20], the “Mortality (%) 72 h” value (72 h) is recorded as 100%. The mortality at 100 µM is 0% under setting [1], 0% under setting [2], 60% under setting [3] and over 90% under setting [4].
In the case of `CN(NC(=O)c1ccc(F)c(C(F)(F)F)c1)c1ccc(Cl)c(Cl)c1` [Compound 25], the mortality at 100 µM is, setting by setting: under setting [1], 0%; under setting [2], 0%; under setting [3], 30%; under setting [4], 80%.
For `CN(NC(=O)c1ccc(Br)cc1)c1cccc(Br)c1` [Compound 35], the mortality at 100 µM is 0% under setting [1], 0% under setting [2], 30% under setting [3] and 60% under setting [4].
As for `CN(NC(=O)c1cccc(Cl)c1)c1ccc(Cl)c(Cl)c1` [Compound 23], the “Mortality (%) 72 h” value (72 h) came to 95%. For the same compound, the mortality at 100 µM is 0% under setting [1], 5% under setting [2], 40% under setting [3] and over 90% under setting [4].
Take `CN(NC(=O)c1ccc(Cl)c(Cl)c1)c1ccc(Cl)cc1` [Compound 4]: the mortality at 100 µM reads like this: under setting [1], 0%; under setting [2], 0%; under setting [3], 0%; under setting [4], 10%.
For the compound `CN(NC(=O)c1ccc(Cl)c(Cl)c1)c1ccc(C#N)cc1` [Compound 6], the mortality at 100 µM runs as follows: under setting [1], 0%; under setting [2], 0%; under setting [3], 0%; under setting [4], 20%.
Turning to `COc1ccc(C(=O)NN(C)c2ccc(Cl)c(Cl)c2)cc1` [Compound 16], the “Mortality (%) 72 h” value (72 h) was found to be 100%. The mortality at 100 µM by setting is: under setting [1], 0%; under setting [2], 0%; under setting [3], 65%; under setting [4], over 90%.
For the compound `CN(NC(=O)c1ccc(Cl)c(Cl)c1)c1ccc(Cl)c(Cl)c1` [Compound 13], for the setting “72 h”, the “Mortality (%) 72 h” value was 100%. For the same compound, the mortality at 100 µM runs as follows: under setting [1], 0%; under setting [2], 15%; under setting [3], 50%; under setting [4], over 80%.
Take `CN(NC(=O)c1ccc(Cl)c(Cl)c1)c1cccc(Br)c1` [Compound 9]: the “Mortality (%) 72 h” value (72 h) worked out at 85%. Further, the mortality at 100 µM runs as follows: under setting [1], 0%; under setting [2], 0%; under setting [3], 15%; under setting [4], over 80%.
In the case of `CN(NC(=O)c1ccc(Br)cc1)c1ccc(Cl)cc1` [Compound 29], the mortality at 100 µM reads like this: under setting [1], 0%; under setting [2], 0%; under setting [3], 0%; under setting [4], 35%.
Take `Cc1cccc(C(=O)NN(C)c2ccc(Cl)c(Cl)c2)c1` [Compound 22]: the mortality at 100 µM under setting [1] worked out at 0%, the mortality at 100 µM under setting [2] was determined as 0%, the mortality at 100 µM under setting [3] was determined as 0% and the mortality at 100 µM under setting [4] was 70%.
With `CN(NC(=O)c1ccc(Cl)c(Cl)c1)c1ccccc1Cl` [Compound 12], the mortality at 100 µM under setting [1] was 0%, the mortality at 100 µM under setting [2] was 0%, the mortality at 100 µM under setting [3] is 0% and the mortality at 100 µM under setting [4] worked out at 0%.
As to `CN(NC(=O)c1ccc(Br)cc1)c1cccc(Cl)c1` [Compound 34], the mortality at 100 µM runs as follows: under setting [1], 0%; under setting [2], 0%; under setting [3], 0%; under setting [4], 90%.
Regarding `COc1ccc(N(C)NC(=O)c2ccc(Cl)c(Cl)c2)cc1` [Compound 2], the mortality at 100 µM was 0% under setting [1], 0% under setting [2], 0% under setting [3] and 0% under setting [4].
Regarding `Cc1ccc(N(C)NC(=O)c2ccc(Cl)c(Cl)c2)cc1` [Compound 1], the “Mortality (%) 72 h” value (72 h) is 100%. In addition, the mortality at 100 µM by setting is: under setting [1], 0%; under setting [2], 5%; under setting [3], 60%; under setting [4], over 80%.
With `CN(NC(=O)c1ccc(Cl)c(Cl)c1)c1ccc(F)cc1` [Compound 3], for the setting “72 h”, the “Mortality (%) 72 h” value stood at 85%. Also, the mortality at 100 µM runs as follows: under setting [1], 0%; under setting [2], 0%; under setting [3], 45%; under setting [4], over 80%.
On to `CN(NC(=O)c1ccc(Br)cc1)c1ccc(F)cc1` [Compound 28], for which the mortality at 100 µM reads like this: under setting [1], 0%; under setting [2], 0%; under setting [3], 0%; under setting [4], 0%.
In the case of `CN(NC(=O)c1ccc(C(F)(F)F)cc1)c1ccc(Cl)c(Cl)c1` [Compound 19], the mortality at 100 µM came out at 0% under setting [1], 0% under setting [2], 35% under setting [3] and 80% under setting [4].
`CN(NC(=O)c1ccc(Br)cc1)c1ccc(Br)cc1` [Compound 30]: the mortality at 100 µM runs as follows: under setting [1], 0%; under setting [2], 10%; under setting [3], 65%; under setting [4], 100%.
The corresponding values for `Cc1cccc(N(C)NC(=O)c2ccc(Cl)c(Cl)c2)c1` [Compound 7] are 0%, 0%, 0% and 0%.
As for `CN(NC(=O)c1ccc(Br)cc1)c1cccc(C(F)(F)F)c1` [Compound 36], the mortality at 100 µM reads like this: under setting [1], 0%; under setting [2], 0%; under setting [3], 10%; under setting [4], 80%.
Regarding `CN(NC(=O)c1ccc(Cl)c(Cl)c1)c1cccc(Cl)c1` [Compound 8], the “Mortality (%) 72 h” value (72 h) was 100%. Further, the mortality at 100 µM reads like this: under setting [1], 0%; under setting [2], 0%; under setting [3], 40%; under setting [4], over 80%.
